This note sets out measurements from patent publication US20200129514A1, “JAK INHIBITION AS A NOVEL THERAPY FOR PREVENTING TUMORS IN PEUTZ-JEGHERS SYNDROME” (Curingenetics, LLC, priority 2018, published 2020).

The subject of one assay is Stat3. Briefly: Stat3 activation in primary epithelial crypts incubated with recombinant cytokine. The settings on record: primary epithelial crypts isolated from mouse small intestine. Type of assay: cell-based. The protocol: (§1) IL-11 signaling is mediated via its binding to the transmembrane receptor Gp130, resulting in activation of the Jak-Stat and MAPK pathways. Of these, the induction of Jak-Stat3 activation appears most critical in GI tumorigenesis. To investigate whether IL-11 is sufficient to induce Stat3 activation in isolated wild-type epithelium, we incubated primary epithelial crypts isolated from mouse small intestine with recombinant IL-11. […] Next, we addressed whether Stat3-dependent transcriptional changes observed in polyps can be induced by IL-11 in primary epithelial organoid cultures. We focused our analysis in Reg3b, Reg3g and Lrg1 genes due to their reported expression in inflammatory epithelium in a Stat3-dependent manner and overexpression in PJS model polyps (Supplemental FIG. 6D, Supplemental Table 3).

Assay [1] deals with Lkb1FspKO/FspKO mice (PJS polyps). Kind of assay: Ruxolitinib-containing chow treatment of Lkb1FspKO/FspKO mice, tumor burden after six weeks.
Assay [2] deals with Reg3b, Reg3g and Lrg1 expression. Kind of assay: Induction of Stat3-dependent genes in primary epithelial organoid cultures. The class given is cell-based. The protocol: as §1

In the case of “IL-6: IL-6 cytokine used as comparator for Stat3 activation”, the “activation of Stat3” value with Stat3 is reported as “comparably”.
Turning to `N#CC[C@H](C1CCCC1)n1cc(-c2ncnc3[nH]ccc23)cn1` [ruxolitinib, Ruxolitinib], in assay [1] (ruxolitinib chow 2 g/kg, 6/11 treated mice, all non-treated mice developed polyps), the tumor-free mice is 55%. For the same molecule, the average polyp diameter in assay [1] (ruxolitinib chow, 2.51 in non-treated, p=0.082, not significant) was found to be 1.68 mm. Moreover, the average tumor number in assay [1] (ruxolitinib chow, 6.54 in non-treated) is recorded as 1.27. The molecule also came in with an average tumor area in assay [1] (ruxolitinib chow, 47.4 in non-treated) of 3.58 mm2.

B1: IL-11: recombinant IL-11, an IL-6 family cytokine signalling via Gp130 (protein, UniProt P20809 22-199, looked up)
Interleukin-11: PGPPPGPPRVSPDPRAELDSTVLLTRSLLADTRQLAAQLRDKFPADGDHNLDSLPTLAMSAGALGALQLPGVLTRLRADLLSYLRHVQWLRRAGGSSLKTLEPELGTLQARLDRLLRRLQLLMSRLALPQPPPDPPAPPLAPPSSAWGGIRAAHAILGGLHLTLDWAVRGLLLLKTRL
Take B1: the “activation of Stat3” value in the assay on Stat3 is given as “resulted in activation of Stat3”. For the same molecule, the “induction of Reg3b, Reg3g and Lrg1 expression” value in assay [2] was “robust induction”.
